From ChEMBL document CHEMBL1128209, “Cyclooxygenase-2 inhibitors. Synthesis and pharmacological activities of 5-methanesulfonamido-1-indanone derivatives” (J Med Chem, 1995)

Tested on: Rattus norvegicus
Assay: In vivo antiinflammatory activity by the Carrageenan-induced rat paw hyperalgesia assay.
Assay type: functional
Details: not given

Structure (SMILES)	ED50
COc1ccc2c(c1)c(CC(=O)O)c(C)n2C(=O)c1ccc(Cl)cc1 [INDOMETHACIN]	1.47 mg/kg

Tested on: Rattus norvegicus
Assay: In vivo antiinflammatory activity by the Carrageenan-induced rat paw edema assay
Assay type: functional
Details: not given

Structure (SMILES)	ED30
CS(=O)(=O)Nc1cc2c(cc1Sc1ccc(F)cc1F)C(=O)CC2	0.21 MPK

Tested on: not listed separately
Assay: Plasma Clearance rate was determined for the compound in squirrel monkeys
Assay type: ADME, organism-based
Details: saimiri

Structure (SMILES)	clearance
CS(=O)(=O)Nc1cc2c(cc1Oc1ccc(F)cc1F)C(=O)CC2 [FLOSULIDE]	1.2 mL/min

Tested on: not listed separately
Assay: Bioavailability in rat
Assay type: ADME, organism-based
Details: in vivo

Structure (SMILES)	bioavailability
CS(=O)(=O)Nc1cc2c(cc1Oc1ccc(F)cc1F)C(=O)CC2 [FLOSULIDE]	92%
CS(=O)(=O)Nc1cc2c(cc1Sc1ccc(F)cc1F)C(=O)CC2	90%

Tested on: not listed separately
Assay: Plasma clearance rate was determined for the compound in rats
Assay type: ADME, organism-based
Details: rat

Structure (SMILES)	clearance
CS(=O)(=O)Nc1cc2c(cc1Sc1ccc(F)cc1F)C(=O)CC2	0.5 mL/min

Tested on: not listed separately
Assay: Bioavailability in squirrel monkey
Assay type: ADME, organism-based, Saimiri sciureus
Details: in vivo

Structure (SMILES)	bioavailability
CS(=O)(=O)Nc1cc2c(cc1Oc1ccc(F)cc1F)C(=O)CC2 [FLOSULIDE]	63%
CS(=O)(=O)Nc1cc2c(cc1Sc1ccc(F)cc1F)C(=O)CC2	145%

Target: T1, Prostaglandin G/H synthase 2 (Homo sapiens, UniProt P35354)
T1 sequence (P35354 whole entry): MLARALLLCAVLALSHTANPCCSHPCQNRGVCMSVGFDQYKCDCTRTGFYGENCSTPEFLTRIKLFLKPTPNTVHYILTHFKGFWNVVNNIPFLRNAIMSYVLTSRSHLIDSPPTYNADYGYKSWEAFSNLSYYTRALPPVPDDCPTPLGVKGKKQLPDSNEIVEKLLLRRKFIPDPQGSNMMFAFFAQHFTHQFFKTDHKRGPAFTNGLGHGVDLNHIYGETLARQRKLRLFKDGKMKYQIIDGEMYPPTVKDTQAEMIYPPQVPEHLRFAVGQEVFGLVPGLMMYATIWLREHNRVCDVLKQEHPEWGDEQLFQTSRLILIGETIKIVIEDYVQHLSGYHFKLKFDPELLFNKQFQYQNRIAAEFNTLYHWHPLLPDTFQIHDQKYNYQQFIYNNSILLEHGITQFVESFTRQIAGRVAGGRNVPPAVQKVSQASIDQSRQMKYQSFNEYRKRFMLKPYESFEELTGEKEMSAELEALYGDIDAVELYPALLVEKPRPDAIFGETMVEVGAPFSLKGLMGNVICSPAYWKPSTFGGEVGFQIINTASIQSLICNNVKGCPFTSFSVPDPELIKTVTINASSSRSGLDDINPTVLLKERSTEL
Assay: In vitro inhibition of prostaglandin G/H synthase 2 expressed in human osteosarcoma 143 cells
Assay type: cell-based
Details: not given

Structure (SMILES)	IC50
CS(=O)(=O)Nc1cc2c(cc1Sc1cccc(F)c1)C(=O)CC2	> 10 µM
CS(=O)(=O)Nc1cc2c(cc1Sc1ccccc1F)C(=O)CC2	0.1 µM
CS(=O)(=O)Nc1cc2c(cc1Sc1ccc(Cl)cc1Cl)C(=O)CC2	0.01 µM
CSc1ccc(Oc2cc3c(cc2NS(C)(=O)=O)CCC3=O)cc1	0.1 µM
CS(=O)(=O)Nc1cc2c(cc1Oc1ccc(S(C)(=O)=O)cc1)C(=O)CC2	> 10 µM
O=C1CCc2cc(NS(=O)(=O)C(F)(F)F)c(Sc3ccc(F)cc3F)cc21	0.04 µM
CS(=O)(=O)Nc1cc2c(cc1Sc1ccc(Br)cc1)C(=O)CC2	0.01 µM
CS(=O)(=O)Nc1cc2c(cc1Sc1ccc(C(=O)O)cc1)C(=O)CC2	> 10 µM
CS(=O)(=O)Nc1cc2c(cc1SC1CCCCC1)C(=O)CC2	0.05 µM
COc1ccc(Sc2cc3c(cc2NS(C)(=O)=O)CCC3=O)cc1	0.1 µM
CC(C)c1ccc(Sc2cc3c(cc2NS(C)(=O)=O)CCC3=O)cc1	> 10 µM
CS(=O)(=O)Nc1cc2c(cc1Sc1cccs1)C(=O)CC2	1 µM
CC(=O)Nc1cc2c(cc1Sc1ccc(F)cc1F)C(=O)CC2	> 10 µM
CS(=O)(=O)Nc1cc2c(cc1Sc1nccs1)C(=O)CC2	0.1 µM
CS(=O)(=O)Nc1cc2c(cc1Sc1cncs1)C(=O)CC2	> 10 µM
CS(=O)(=O)Nc1cc2c(cc1Sc1c(F)cccc1F)C(=O)CC2	0.1 µM

Structure (SMILES)	IC50
CS(=O)(=O)Nc1cc2c(cc1OC1CCOCC1)C(=O)CC2	> 10 µM
CS(=O)(=O)Nc1cc2c(cc1S(=O)(=O)c1ccc(F)cc1F)C(=O)CC2	> 10 µM
CS(=O)(=O)Nc1cc2c(cc1Sc1ccncc1)C(=O)CC2	1 µM
CC(C)(C)c1ccc(Sc2cc3c(cc2NS(C)(=O)=O)CCC3=O)cc1	> 10 µM
Cc1cccc(Sc2cc3c(cc2NS(C)(=O)=O)CCC3=O)c1	> 10 µM
COc1ccccc1Sc1cc2c(cc1NS(C)(=O)=O)CCC2=O	> 10 µM
CS(=O)(=O)Nc1cc2c(cc1Sc1cscn1)C(=O)CC2	> 10 µM
CS(=O)(=O)Nc1cc2c(cc1Nc1ccc(F)cc1F)C(=O)CC2	1 µM
CS(=O)(=O)Nc1cc2c(cc1Sc1ccc(F)cc1)C(=O)CC2	1 µM
CS(=O)(=O)Nc1cc2c(cc1OC1CCCC1)C(=O)CC2	> 1 µM
CCc1ccc(Sc2cc3c(cc2NS(C)(=O)=O)CCC3=O)cc1	0.1 µM
O=C1CCc2cc(NC(=O)C(F)(F)F)c(Sc3ccc(F)cc3F)cc21	> 10 µM
CCS(=O)(=O)Nc1cc2c(cc1Sc1ccc(F)cc1F)C(=O)CC2	> 10 µM
CS(=O)(=O)Nc1cc2c(cc1Cc1ccc(F)cc1F)C(=O)CC2	> 0.2 µM
CS(=O)(=O)Nc1cc2c(cc1Sc1ccccn1)C(=O)CC2	0.1 µM
CS(=O)(=O)Nc1cc2c(cc1OC1CCCCC1)C(=O)CC2	0.05 µM

Tested on: not listed separately
Assay: Plasma Clearance rate was determined for the compound in rats
Assay type: ADME, organism-based
Details: rat

Structure (SMILES)	clearance
CS(=O)(=O)Nc1cc2c(cc1Oc1ccc(F)cc1F)C(=O)CC2 [FLOSULIDE]	1.2 mL/min

Target: T2, Prostaglandin G/H synthase 2 (Homo sapiens) (UniProt P35354)
T2 sequence (whole entry): T1 sequence (P35354 whole entry)
Assay: Ability to inhibit the Prostaglandin G/H synthase 2 expressed in human osteosarcoma 143 cells, in vitro
Assay type: cell-based
Details: concentration not given here

Structure (SMILES)	inhibition
CS(=O)(=O)Nc1cc2c(cc1Sc1ccsc1)C(=O)CC2	46%
CS(=O)(=O)Nc1cc2c(cc1[S+]([O-])c1ccc(F)cc1F)C(=O)CC2 (stereo unspecified)	27%
CS(=O)(=O)Nc1cc2c(cc1Sc1cccnc1)C(=O)CC2	30%

Target: Prostaglandin G/H synthase 1 (Homo sapiens, UniProt P23219)
Assay: Inhibition of Prostaglandin G/H synthase 1 in human U937 cells
Assay type: cell-based, U-937
Details: not given

Chain of Prostaglandin G/H synthase 1 (P23219 whole entry): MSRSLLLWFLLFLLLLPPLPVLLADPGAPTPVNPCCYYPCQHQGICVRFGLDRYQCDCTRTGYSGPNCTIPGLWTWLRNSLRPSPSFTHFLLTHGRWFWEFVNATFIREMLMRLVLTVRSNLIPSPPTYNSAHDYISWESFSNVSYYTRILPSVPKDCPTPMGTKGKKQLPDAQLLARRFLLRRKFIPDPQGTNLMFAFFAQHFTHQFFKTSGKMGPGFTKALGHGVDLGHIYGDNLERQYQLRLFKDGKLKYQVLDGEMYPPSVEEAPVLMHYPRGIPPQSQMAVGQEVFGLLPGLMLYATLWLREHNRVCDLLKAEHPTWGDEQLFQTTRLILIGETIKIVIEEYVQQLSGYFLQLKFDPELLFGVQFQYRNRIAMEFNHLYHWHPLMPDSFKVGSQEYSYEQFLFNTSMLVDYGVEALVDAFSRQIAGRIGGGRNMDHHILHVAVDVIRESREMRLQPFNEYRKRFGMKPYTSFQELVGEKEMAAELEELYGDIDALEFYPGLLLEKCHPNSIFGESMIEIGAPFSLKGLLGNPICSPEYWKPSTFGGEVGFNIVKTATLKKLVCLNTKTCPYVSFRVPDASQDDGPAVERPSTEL

Structure (SMILES)	IC50
CS(=O)(=O)Nc1cc2c(cc1Sc1ccccc1F)C(=O)CC2	> 50 µM
CS(=O)(=O)Nc1cc2c(cc1Sc1ccc(Cl)cc1Cl)C(=O)CC2	40 µM
Cc1ccccc1Sc1cc2c(cc1NS(C)(=O)=O)CCC2=O	> 50 µM
CS(=O)(=O)Nc1cc2c(cc1Oc1ccc(F)cc1F)C(=O)CC2 [FLOSULIDE]	> 50 µM
CS(=O)(=O)Nc1cc2c(cc1Sc1ccc(Br)cc1)C(=O)CC2	> 10 µM
CS(=O)(=O)Nc1cc2c(cc1Sc1ccc(F)cc1F)C(=O)CC2	> 50 µM
CS(=O)(=O)Nc1cc2c(cc1SC1CCCCC1)C(=O)CC2	> 50 µM
CS(=O)(=O)Nc1cc2c(cc1Sc1nccs1)C(=O)CC2	> 10 µM
Cc1ccc(Sc2cc3c(cc2NS(C)(=O)=O)CCC3=O)cc1	> 1 µM
CS(=O)(=O)Nc1cc2c(cc1Sc1c(F)cccc1F)C(=O)CC2	> 50 µM
CS(=O)(=O)Nc1cc2c(cc1Sc1ccc(F)cc1)C(=O)CC2	> 50 µM
CS(=O)(=O)Nc1cc2c(cc1OC1CCCC1)C(=O)CC2	> 10 µM
CCS(=O)(=O)Nc1cc2c(cc1Sc1ccc(F)cc1F)C(=O)CC2	> 10 µM
CS(=O)(=O)Nc1cc2c(cc1Cc1ccc(F)cc1F)C(=O)CC2	< 1 µM
CS(=O)(=O)Nc1cc2c(cc1OC1CCCCC1)C(=O)CC2	> 1 µM

Tested on: not listed separately
Assay: Plasma clearance rate was determined for the compound in squirrel monkeys
Assay type: ADME, organism-based
Details: saimiri

Structure (SMILES)	clearance
CS(=O)(=O)Nc1cc2c(cc1Sc1ccc(F)cc1F)C(=O)CC2	0.5 mL/min

Tested on: Rattus norvegicus
Assay: In vivo antipyretic activity by endotoxin-induced rat pyresis assay.
Assay type: functional
Details: not given

Structure (SMILES)	ED50
COc1ccc2c(c1)c(CC(=O)O)c(C)n2C(=O)c1ccc(Cl)cc1 [INDOMETHACIN]	7 mg/kg

Tested on: not listed separately
Assay: Plasma terminal half life in squirrel monkeys at a dose of 1 mg/kg administered intravenously
Assay type: ADME, organism-based
Parameters: dose 1 mg/kg, route intravenous
Details: saimiri, iv

Structure (SMILES)	half-life
CS(=O)(=O)Nc1cc2c(cc1Oc1ccc(F)cc1F)C(=O)CC2 [FLOSULIDE]	4.9 h
CS(=O)(=O)Nc1cc2c(cc1Sc1ccc(F)cc1F)C(=O)CC2	6.9 h

Tested on: Rattus norvegicus
Assay: In vivo antiinflammatory activity by the Carrageenan-induced rat paw edema assay.
Assay type: functional
Details: not given

Structure (SMILES)	ED30	ED50
CS(=O)(=O)Nc1cc2c(cc1Sc1ccc(Cl)cc1Cl)C(=O)CC2	0.1 MPK	
CS(=O)(=O)Nc1cc2c(cc1Oc1ccc(F)cc1F)C(=O)CC2 [FLOSULIDE]	0.6 MPK	
CS(=O)(=O)Nc1cc2c(cc1Sc1ccc(Br)cc1)C(=O)CC2	3 MPK	
CS(=O)(=O)Nc1cc2c(cc1SC1CCCCC1)C(=O)CC2	>3 MPK	
CS(=O)(=O)Nc1cc2c(cc1Sc1nccs1)C(=O)CC2	0.85 MPK	
Cc1ccc(Sc2cc3c(cc2NS(C)(=O)=O)CCC3=O)cc1	10 MPK	
COc1ccc2c(c1)c(CC(=O)O)c(C)n2C(=O)c1ccc(Cl)cc1 [INDOMETHACIN]		2 mg/kg
CS(=O)(=O)Nc1cc2c(cc1OC1CCCCC1)C(=O)CC2	10 MPK	
